ChEMBL document CHEMBL3885861, “Open TG-GATES”

Organism: Rattus norvegicus
Assay: Open TG-GATES - Regimen: Daily Repeat
Format: toxicity, organism-based, Sprague-Dawley
Set-up: regimen Daily Repeat, gender Male, age 6 weeks
Conditions: in vivo, po, 1000 mg/kg, route gavage, dose level Middle; for APTT / Bas / Eos / Fbg / Hb / Ht / Lym / MCH / MCHC / MCV / Mono / Neu / PT / Plat / RBC / Ret / WBC: tissue Blood; for KIDNEY_L / KIDNEY_R / KIDNEY_TOTAL: tissue Kidney; for LIVER: tissue Liver; for A/G / ALP / ALT / AST / BUN / CRE / Ca / Cl / DBIL / GLC / IP / K / LDH / Na / PL / RALB / TBIL / TC / TG / TP / gamma-GTP: tissue Plasma

COc1ccc(O)c(C(C)(C)C)c1.COc1ccc(O)cc1C(C)(C)C [BUTYLATED HYDROXYANISOLE]
TERMINAL_BW (72 h, time 3 day): 219.1 g
APTT (72 h, time 3 day): 16.1 s
Bas (72 h, time 3 day): 0.3%
Eos (72 h, time 3 day): 0.7%
Fbg (72 h, time 3 day): 310.6 mg/dL
Hb (72 h, time 3 day): 12.6 g/dL
Ht (72 h, time 3 day): 36.7%
Lym (72 h, time 3 day): 75.6%
MCH (72 h, time 3 day): 20.5 pg
MCHC (72 h, time 3 day): 34.3%
MCV (72 h, time 3 day): 59.6 fL
Mono (72 h, time 3 day): 3.1%
Neu (72 h, time 3 day): 19.4%
PT (72 h, time 3 day): 10.9 s
Plat (72 h, time 3 day): 134.7 x10_4/uL
RBC (72 h, time 3 day): 615.6 x10_4/ul
Ret (72 h, time 3 day): 3.6%
WBC (72 h, time 3 day): 130.3 x10_2/uL
KIDNEY_L (72 h, time 3 day): 1 g
KIDNEY_R (72 h, time 3 day): 0.9 g
KIDNEY_TOTAL (72 h, time 3 day): 1.9 g
LIVER (72 h, time 3 day): 15 g
A/G (72 h, time 3 day): 0.8
ALP (72 h, time 3 day): 1334 IU/L
ALT (72 h, time 3 day): 44.6 IU/L
AST (72 h, time 3 day): 65.6 IU/L
BUN (72 h, time 3 day): 16 mg/dL
CRE (72 h, time 3 day): 0.2 mg/dL
Ca (72 h, time 3 day): 11.5 mg/dL
Cl (72 h, time 3 day): 104.6 meq/L
DBIL (72 h, time 3 day): 0.028 mg/dL
GLC (72 h, time 3 day): 171.4 mg/dL
IP (72 h, time 3 day): 7 mg/dL
K (72 h, time 3 day): 3.9 meq/L
LDH (72 h, time 3 day): 71.8 IU/L
Na (72 h, time 3 day): 142.4 meq/L
PL (72 h, time 3 day): 200.8 mg/dL
RALB (72 h, time 3 day): 2.6 g/dL
TBIL (72 h, time 3 day): 0.092 mg/dL
TC (72 h, time 3 day): 115.2 mg/dL
TG (72 h, time 3 day): 76.2 mg/dL
TP (72 h, time 3 day): 5.9 g/dL
gamma-GTP (72 h, time 3 day): 1.6 IU/L
TERMINAL_BW ([…], time 7 day): 247 g
TERMINAL_BW ([…], time 14 day): 309.8 g
TERMINAL_BW ([…], time 28 day): 393.4 g
APTT ([…], time 7 day): 16.2 s
Bas ([…], time 7 day): 0.3%
Eos ([…], time 7 day): 0.6%
Fbg ([…], time 7 day): 341 mg/dL
Hb ([…], time 7 day): 13.3 g/dL
Ht ([…], time 7 day): 38.5%
Lym ([…], time 7 day): 79%
MCH ([…], time 7 day): 20.6 pg
MCHC ([…], time 7 day): 34.5%
MCV ([…], time 7 day): 59.7 fL
Mono ([…], time 7 day): 2%
Neu ([…], time 7 day): 17.1%
PT ([…], time 7 day): 11.6 s
Plat ([…], time 7 day): 156.6 x10_4/uL
RBC ([…], time 7 day): 645.8 x10_4/ul
Ret ([…], time 7 day): 5.7%
WBC ([…], time 7 day): 119.3 x10_2/uL
APTT ([…], time 14 day): 19.6 s
Bas ([…], time 14 day): 0.3%
Eos ([…], time 14 day): 0.7%
Fbg ([…], time 14 day): 334.2 mg/dL
Hb ([…], time 14 day): 13.6 g/dL
Ht ([…], time 14 day): 39.6%
Lym ([…], time 14 day): 76.3%
MCH ([…], time 14 day): 19.9 pg
MCHC ([…], time 14 day): 34.3%
MCV ([…], time 14 day): 57.9 fL
Mono ([…], time 14 day): 2.4%
Neu ([…], time 14 day): 19.6%
PT ([…], time 14 day): 11.8 s
Plat ([…], time 14 day): 132.4 x10_4/uL
RBC ([…], time 14 day): 684.8 x10_4/ul
Ret ([…], time 14 day): 3.9%
WBC ([…], time 14 day): 105.1 x10_2/uL
APTT ([…], time 28 day): 20.3 s
Bas ([…], time 28 day): 0.4%
Eos ([…], time 28 day): 1%
Fbg ([…], time 28 day): 290.2 mg/dL
Hb ([…], time 28 day): 14.7 g/dL
Ht ([…], time 28 day): 41.5%
Lym ([…], time 28 day): 77.6%
MCH ([…], time 28 day): 19.5 pg
MCHC ([…], time 28 day): 35.4%
MCV ([…], time 28 day): 55 fL
Mono ([…], time 28 day): 1.8%
Neu ([…], time 28 day): 18.4%
PT ([…], time 28 day): 12.1 s
Plat ([…], time 28 day): 119.1 x10_4/uL
RBC ([…], time 28 day): 754.6 x10_4/ul
Ret ([…], time 28 day): 2.2%
WBC ([…], time 28 day): 117.9 x10_2/uL
KIDNEY_L ([…], time 7 day): 1 g
KIDNEY_R ([…], time 7 day): 1 g
KIDNEY_TOTAL ([…], time 7 day): 2 g
KIDNEY_L ([…], time 14 day): 1.2 g
KIDNEY_R ([…], time 14 day): 1.1 g
KIDNEY_TOTAL ([…], time 14 day): 2.3 g
KIDNEY_L ([…], time 28 day): 1.3 g
KIDNEY_R ([…], time 28 day): 1.3 g
KIDNEY_TOTAL ([…], time 28 day): 2.6 g
LIVER ([…], time 7 day): 13.6 g
LIVER ([…], time 14 day): 18 g
LIVER ([…], time 28 day): 20 g
A/G ([…], time 7 day): 0.8
ALP ([…], time 7 day): 1105 IU/L
ALT ([…], time 7 day): 35.6 IU/L
AST ([…], time 7 day): 56.8 IU/L
BUN ([…], time 7 day): 16.4 mg/dL
CRE ([…], time 7 day): 0.2 mg/dL
Ca ([…], time 7 day): 11.3 mg/dL
Cl ([…], time 7 day): 105.4 meq/L
DBIL ([…], time 7 day): 0.024 mg/dL
GLC ([…], time 7 day): 171.8 mg/dL
IP ([…], time 7 day): 6.8 mg/dL
K ([…], time 7 day): 3.7 meq/L
LDH ([…], time 7 day): 62.8 IU/L
Na ([…], time 7 day): 143 meq/L
PL ([…], time 7 day): 188.2 mg/dL
RALB ([…], time 7 day): 2.8 g/dL
TBIL ([…], time 7 day): 0.054 mg/dL
TC ([…], time 7 day): 103.4 mg/dL
TG ([…], time 7 day): 144.4 mg/dL
TP ([…], time 7 day): 6.4 g/dL
gamma-GTP ([…], time 7 day): 1.2 IU/L
A/G ([…], time 14 day): 0.7
ALP ([…], time 14 day): 1071.8 IU/L
ALT ([…], time 14 day): 36.8 IU/L
AST ([…], time 14 day): 56.8 IU/L
BUN ([…], time 14 day): 19 mg/dL
CRE ([…], time 14 day): 0.2 mg/dL
Ca ([…], time 14 day): 11.1 mg/dL
Cl ([…], time 14 day): 105 meq/L
DBIL ([…], time 14 day): 0.022 mg/dL
GLC ([…], time 14 day): 169 mg/dL
IP ([…], time 14 day): 5.9 mg/dL
K ([…], time 14 day): 3.8 meq/L
LDH ([…], time 14 day): 50 IU/L
Na ([…], time 14 day): 143.6 meq/L
PL ([…], time 14 day): 199.8 mg/dL
RALB ([…], time 14 day): 2.8 g/dL
TBIL ([…], time 14 day): 0.046 mg/dL
TC ([…], time 14 day): 103 mg/dL
TG ([…], time 14 day): 164.8 mg/dL
TP ([…], time 14 day): 6.6 g/dL
gamma-GTP ([…], time 14 day): 1.8 IU/L
A/G ([…], time 28 day): 0.7
ALP ([…], time 28 day): 853 IU/L
ALT ([…], time 28 day): 35.6 IU/L
AST ([…], time 28 day): 55.6 IU/L
BUN ([…], time 28 day): 17.4 mg/dL
CRE ([…], time 28 day): 0.3 mg/dL
Ca ([…], time 28 day): 11.2 mg/dL
Cl ([…], time 28 day): 104.4 meq/L
DBIL ([…], time 28 day): 0.018 mg/dL
GLC ([…], time 28 day): 183.8 mg/dL
IP ([…], time 28 day): 5.8 mg/dL
K ([…], time 28 day): 3.4 meq/L
LDH ([…], time 28 day): 58.2 IU/L
Na ([…], time 28 day): 145.2 meq/L
PL ([…], time 28 day): 161 mg/dL
RALB ([…], time 28 day): 2.7 g/dL
TBIL ([…], time 28 day): 0.058 mg/dL
TC ([…], time 28 day): 88.4 mg/dL
TG ([…], time 28 day): 115.4 mg/dL
TP ([…], time 28 day): 6.5 g/dL
gamma-GTP ([…], time 28 day): 1.4 IU/L
